Patent publication US9322034B2, “Compositions and methods for detecting and modulating cell death by a translation regulated gene expression system” (Wayne State University, priority 2007, dated 2016)
Where a SMILES comes first, the peptide text is derived from it. The star is where a group is joined. Cbz = O=C(OCc1ccccc1)*

Experiments:
[1] = tested on: HEK293 cells; assay: Trypan blue staining of HEK293 cells treated with toxic agents; assay type: cell-based, human; conditions: 50 micromolar, within 24 hr
[2] = tested on: HEK293 or HT1080 cells transduced with rAAV TRplp-EYFP / TRdm-EYFP; assay: TR-EYFP translation after rAAV transduction; assay type: cell-based, human; conditions: 25 μM, 24 hr
Protocol: This example is to show delivery of the TRplp-EYFP and TRdm-EYFP cassettes to HEK293 and HT1080 cells using rAAV transduction. HEK293 or HT1080 cells are plated on flame sterilized glass slides and grown until 60-70% confluent (1-2 days), washed with L-DMEM (DMEM containing 2% fetal bovine serum), and infected with rAAV for 2 hr. The medium is replaced with DMEM, 10% FBS and the cells are incubated for 24 hours. Infected cells are treated with DMEM, 10% FBS supplemented with toxic levels of MG132 (25 μM) for 24 hr prior to direct microscopic or Western analysis as described above.

[3] = tested on: HEK293 cell pools expressing the fLUC-TRplp-EYFP, fLUC-TRdm-EYFP, pcuLf-TRplp-EYFP or pcuLf-TRdm-EYFP expression cassettes; assay: Cytotoxicity assay by Western blot, bicistronic TR cassettes; assay type: cell-based, human; conditions: toxic doses
[4] = Pro-drug induced cell death, Trypan blue cell viability assay, control cells; assay type: cell-based; conditions: human, HEK293 or HEK CMV-EYFP cells (control cells); any concentration (10 nM to 10 μM), 3 or 4 days; read-out: cells remaining Trypan blue viable
Protocol: (§1) In this example, HEK293, HEK CMV-EYFP, and HEK TRplp-TKsr39 cells are treated with various amounts of the pro-drug ganciclovir and tested for cell death after 4 days incubation using the Trypan blue staining assay. Cells are plated into 6-well trays, grown to 70-80% confluence, and treated with DMEM, 10% FBS supplemented with ganciclovir (0, 10 nM, 100 nM, 1 μM, 5 μM or 10 μM) for 4 days. Viable cell counts are performed at 3 days and 4 days post-incubation (FIG. 13).

[5] = tested on: HEK293 TRplp-TKsr39 cells; assay: Pro-drug induced cell death, Trypan blue cell viability assay; assay type: cell-based, human
Protocol: as §1

[6] = target: TKsr39 protein (Human herpesvirus 1, UniProt Q9QNF7, A168F/F161L/I160F/L159I/L169M); conditions: TKsr39 versus wildtype TK protein; cited from earlier work
TKsr39 protein, sequence (Q9QNF7 whole entry A168F/F161L/I160F/L159I/L169M, looked up): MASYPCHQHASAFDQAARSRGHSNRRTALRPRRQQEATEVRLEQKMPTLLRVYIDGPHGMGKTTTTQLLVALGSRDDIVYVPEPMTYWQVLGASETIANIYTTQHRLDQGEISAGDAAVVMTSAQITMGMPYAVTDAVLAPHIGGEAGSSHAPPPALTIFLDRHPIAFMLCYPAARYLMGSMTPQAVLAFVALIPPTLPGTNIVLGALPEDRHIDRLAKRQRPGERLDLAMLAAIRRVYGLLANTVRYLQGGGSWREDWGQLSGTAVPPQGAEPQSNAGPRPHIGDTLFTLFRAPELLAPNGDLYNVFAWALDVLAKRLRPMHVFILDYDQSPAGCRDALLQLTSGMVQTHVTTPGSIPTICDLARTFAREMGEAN

SMILES | cell death in HEK293 cells as determined by Trypan blue staining [1] | translation of EYFP in rAAV transduced cells compared to uninfected control cells [2] | EYFP translation in cell pools expressing the bicistronic TR cassettes (Western blot, FIG. 4) [3] | viability [4] [%] | cell viability compared to untreated cells ([5]; 10 nM, 3 days) | cell viability compared to untreated cells ([5]; 100 nM, 3 days) | viability at 10 µM ([5]; Homo sapiens, HEK293, 72 h, 3 days) [%] | viability at 0.01 µM ([5]; Homo sapiens, HEK293, 96 h, 10 nM, 4 days) [%] | viability at 10 µM ([5]; Homo sapiens, HEK293, 96 h, 4 days) [%] | prodrug binding of TKsr39 protein, higher than the wildtype protein [6] [fold]
CC(C)C[C@@H](C=O)NC(=O)[C@H](CC(C)C)NC(=O)[C@H](CC(C)C)NC(=O)OCc1ccccc1 [MG132] (Cbz-Leu-Leu-Leu-aldehyde) | complete cell death | exhibit selective translation of the fluorescent EYFP protein | induce EYFP translation |  |  |  |  |  |  | 
Nc1nc(O)c2ncn(COC(CO)CO)c2n1 [ganciclovir] |  |  |  | 98 to 100 | does not exhibit any decrease in cell viability | slight decrease | 86 | 99.7 | 33.7 | 83
